Data published in patent publication US8329645B2, “Polymyxin derivatives and uses thereof” (priority 2008, dated 2012).
Where a SMILES comes first, the peptide text is derived from it. Bridges are numbered along the chain shown (N, C = ends). [ ]: non-standard residue; d: D form. The star is where a group is joined. Decanoyl = CCCCCCCCCC(=O)*; Octanoyl = CCCCCCCC(=O)*; Dab = NCC[C@H](N)C(=O)O; Abu = CC[C@H](N)C(=O)O

How the values were obtained:
[1] = system: Pseudomonas aeruginosa ATCC 27853; experiment: Growth inhibition around wells on LB agar plates; format: cell-based; conditions: Ps. aeruginosa ATCC 27853
In short: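 Activity against Pseudomonas aeruginosa ATCC 27853 was assessed by agar well diffusion on LB plates. A suspension of about 10^8 cells/ml in 0.9% NaCl was spread over the agar and the excess removed. Once the surface had dried, 2 mm wells were drilled and filled with peptide dissolved in 0.9% NaCl. Plates were incubated 18 h at 37° C, and inhibition zone diameters were converted to areas in square mm.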

E. coli ATCC25922 [2] = experiment: Growth inhibition around wells on LB agar plates; format: cell-based, Escherichia coli
Experimental: (§1) From an overnight-grown culture of IH3080 on LB agar, a suspension of approx. 10^8 cells/ml was prepared in 0.9% NaCl. Aliquots of this suspension were then pipetted on the agar plates and the plates were gently shaken to spread the suspension evenly on the entire surface of the plate. Thereafter, the unabsorbed part of the suspension was removed by using a Pasteur pipette. After the surface had dried, small wells (diameter, 2 mm) were drilled on the plates (five wells per plate) by using a sterile sharp-edged narrow metal tube, single-use pipette tip, and vacuum suction. An alternative method used a swab to spread the inoculum. Samples (4 μl and 10 μl) of the peptide solution in 0.9% NaCl (at concentrations of 1 μg/ml and 0.1 μg/ml) were then pipetted to the wells and the sample fluids were allowed to absorb. Controls included 0.9% NaCl solution without the compound to be tested. The plates were then incubated for 18 h at 37° C. whereafter the diameters of growth inhibition zones around each well were measured; the diameter of the well itself was not reduced. Finally, the diameters were converted to surface areas of growth inhibition (in square mm).
(§2) The susceptibility of eleven Gram-negative bacterial strains (nine different species) to NAB734 and polymyxin B was compared by using the susceptibility determination method described in Example 2. The strains included those belonging to the species of Serratia marcescens and Proteus mirabilis, both species generally known to be resistant to polymyxin. Furthermore, the susceptibility determination was also performed by using the Gram-positive bacterium, Staphylococcus aureus, also generally known to be polymyxin-resistant. Ten of the strains originated from ATCC (American Type Culture Collection, Manassas, Va., U.S.A.), and one from CCUG (Culture Collection of University of Gothenburg, Sweden). The source of E. coli IH3080 has been described in Example 2. Polymyxin B sulfate was from Sigma-Aldrich (St. Louis, Mo., USA).

E. cloacae ATCC23355 = experiment: Growth inhibition around wells on LB agar plates; format: cell-based, Enterobacter cloacae; conditions: 4 μg
Experimental: as §1, §2

E. coli ATCC25922 [3] = system: E. coli ATCC25922
In short: (§3)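 Read-out: MIC taken from the E-strip scale. Testing followed the manufacturer's instructions for strip use.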

K. pneumoniae ATCC13883 = system: K. pneumoniae ATCC13883
In short: as §3

[4] = Two-week intravenous toxicity study in young rats; format: in vivo; conditions: for lowest dose that negatively influenced the body weight gain: intravenously twice a day for two weeks
Experimental: Toxicity in young rats (weighing approx. 150 g in the beginning of the study) was determined by administering doses (1, 2, 4, 8, 16, and 32 mg/kg per day) of NAB7061 as well as the control compound polymyxin B intravenously twice (2) a day for two weeks. A group of ten (10) rats was studied for each dosage regimen. Clinical observations were made daily, the body weight measured twice weekly, and the food consumption twice weekly. In the end of week 2, all animals were sacrificed.
Histopathology of kidneys was performed for each animals and histopathology of all tissues was performed in three high-dose groups receiving NAB7061.

E. coli strains = format: cell-based, Escherichia coli
Experimental: Polymyxin B sulfate (Sigma-Aldrich, St. Louis, Mo., USA) was used as a control. […] Fourteen (14) strains (the F-strains) were purchased from Mobidiag Ltd., Helsinki, Finland. Besides bacteria, the MIC was also determined for the yeast Candida albicans (ATCC 28366 from ATCC). The inocula were prepared by adjusting the bacterial suspensions to a density equivalent to OD546 nm˜0.3 (˜10^8 CFU/ml˜0.5 McFarland) the yeast suspension to a density equivalent to OD546 nm˜0.75 (˜2×10^7 CFU/ml)._The suspensions were diluted to 10^7 CFU/ml. The plates were inoculated by using a Denley Multipoint Inoculator, 1 μl per spot corresponding to approx. 10^4 CFU/spot. Plates were incubated for 16-20 hours at 35° C. […] Both agents had good activity also against other polymyxin-susceptible strains of Enterobacteriaceae. […] S. aureus and C. albicans were resistant to the NAB peptides.

E. coli IH3080 (O18:K1) = experiment: Synergistic bactericidal activity with guinea pig serum (complement); format: cell-based, Escherichia coli
Experimental: The ability of NAB7061 to sensitize encapsulated, smooth strain of E. coli to the bactericidal action of normal guinea pig serum (GPS) was studied by the method described by Vaara et al. (1984). E. coli IH3080 (018,K1) was grown in LB broth (LB broth Lennox, Difco, BD, Sparks, Md., U.S.A) at 37° C. in a rotary shaker into early logarithmic growth phase, washed with PBS (phosphate-buffered saline, 8.0 g of NaCl, 0.2 g of KCl, 1.44 g of Na2HPO4×2H2O and 0.2 g of KH2PO4 per liter) and resuspended in PBS, to approx. 10^9 cells/ml). GPS was used as complement source. It was stored at −70° C. before use.
The experimental procedure was as follows. 10% GPS in PBS was inoculated with approx. 500 CFU (colony forming units) of bacteria per ml and pipetted in 0.2 ml aliquots into wells of microtiter plates. The wells already contained increasing amounts of NAB7061 in 0.020 ml of 0.9% NaCl. The plate was incubated at 37° C. for 2 h whereafter each well was emptied onto LB plates. The plates were incubated overnight at 37° C. and the developed colonies were counted.

in vivo = conditions: male, Sprague-Dawley, rat, iv, 1 mg/kg
Experimental: Four rats (Sprague-Dawley, male) were studied.
The samples were analyzed using liquid chromatography and mass spectrometry with electrospray ionization interface (LC/electrospray ionization MS).

Question: What does the source list for Polymyxin B [reference compound]?
Answer: growth inhibition around a well ([1]; 10 μg): 133 square millimeters; growth inhibition around a well (E. coli ATCC25922 [2]; 4 μg): 95 square millimeters; growth inhibition around a well (E. coli ATCC25922 [2]; 10 μg): 133 square millimeters; growth inhibition around a well (E. cloacae ATCC23355): 95 square millimeters; Sensitization factor to antibiotic (MIC without / with 4 μg/ml of NAB 7061) (E. coli ATCC25922 [3]; E. coli ATCC25922): 5; Sensitization factor to antibiotic (MIC without / with 4 μg/ml of NAB 7061) (K. pneumoniae ATCC13883; K. pneumoniae ATCC13883): 1; lowest dose that negatively influenced the body weight gain ([4]; rats): 1 mg/kg per day

Question: For `CCCCCCCCCC(=O)N[C@H](C(=O)N[C@H](CO)C(=O)N[C@H]1CCNC(=O)[C@H]([C@@H](C)O)NC(=O)[C@H](CCN)NC(=O)[C@H](CCN)NC(=O)[C@H](CC(C)C)NC(=O)[C@@H](Cc2ccccc2)NC(=O)[C@H](CCN)NC1=O)[C@@H](C)O` [NAB 740, DA-Thr-DSer-cy[Dab-Dab-DPhe-Leu-Dab-Dab-Thr-]] (Decanoyl-T[dS][Dab][Dab][dF]L[Dab][Dab]T; lactam 3-C), which “growth inhibition around a well” value ([1]; 4 μg) is on record?
Answer: 64 square millimeters

Question: What about the “growth inhibition around a well” value ([1]; 10 μg) of the same molecule?
Answer: 133 square millimeters

Question: What about the “MIC values, range for E. coli strains” value (E. coli strains) of the same molecule?
Answer: 1 to 2 µg/mL

Question: What does the source list for `CCCCCCCC(=O)N[C@H](C(=O)N[C@@H](CC)C(=O)N[C@H]1CCNC(=O)[C@H]([C@@H](C)O)NC(=O)[C@H](CCN)NC(=O)[C@H](CCN)NC(=O)[C@H](CC(C)C)NC(=O)[C@@H](Cc2ccccc2)NC(=O)[C@H](CCN)NC1=O)[C@@H](C)O` [NAB 7061, OA-Thr-Abu-cy[Dab-Dab-DPhe-Leu-Dab-Dab-Thr-]] (Octanoyl-T[Abu][Dab][Dab][dF]L[Dab][Dab]T; lactam 3-C)?
Answer: growth inhibition around a well ([1]; 4 μg): 0 square millimeters; growth inhibition around a well ([1]; 10 μg): 0 square millimeters; MIC of NAB7061 (E. coli ATCC25922 [3]; ATCC 25922): 16 µg/mL; MIC of NAB7061 (K. pneumoniae ATCC13883; ATCC 13883): > 16 µg/mL; % survival after 2-hour treatment at 37° C. (E. coli IH3080 (O18:K1); 10% GPS, heat inactivated, NAB7061 2 μg/ml): 500%; % survival after 2-hour treatment at 37° C. (E. coli IH3080 (O18:K1); 10% GPS, NAB7061 2 μg/ml): 2%; % survival after 2-hour treatment at 37° C. (E. coli IH3080 (O18:K1); 10% GPS, NAB7061 4 μg/ml): 0%; % survival after 2-hour treatment at 37° C. (E. coli IH3080 (O18:K1); none (PBS), NAB7061 2 μg/ml): 97%; rise of blood urea nitrogen (BUN) versus control or low dose group ([4]; 16 mg/kg per day, end of the study): no such a rise was found; lowest dose that negatively influenced the body weight gain ([4]; rats): 8 mg/kg per day; general pathology and histopathology of organs and kidneys ([4]; rats, two weeks): No NAB7061-related pathological findings were found

Question: With `CCCCCCCC(=O)N[C@H](C(=O)N[C@H](CO)C(=O)N[C@H]1CCNC(=O)[C@H]([C@@H](C)O)NC(=O)[C@H](CCN)NC(=O)[C@H](CCN)NC(=O)[C@H](CC(C)C)NC(=O)[C@@H](Cc2ccccc2)NC(=O)[C@H](CCN)NC1=O)[C@@H](C)O` [NAB 739, OA-Thr-DSer-cy[Dab-Dab-DPhe-Leu-Dab-Dab-Thr-]] (Octanoyl-T[dS][Dab][Dab][dF]L[Dab][Dab]T; lactam 3-C) as the molecule, how does the “growth inhibition around a well” value ([1]; 4 μg) read?
Answer: 38 square millimeters

Question: What about the “growth inhibition around a well” value ([1]; 10 μg) of the same molecule?
Answer: 79 square millimeters

Question: And the “MIC values, range for E. coli strains” value (E. coli strains)?
Answer: 0.5 to 1 µg/mL

Question: What about the CL renal (in vivo; plasma and urine) of the same molecule?
Answer: 0.53 ± 0.3 mL/min/kg

Question: What about the Vd (in vivo; plasma) of the same molecule?
Answer: 0.222 ± 0.0205 L/kg

Question: And the clearance (in vivo; plasma)?
Answer: 2.63 ± 0.54 mL/min/kg

Question: And the half-life (in vivo; plasma)?
Answer: 1.15 ± 0.365 h

Question: What about the dose excreted (in vivo; urine) of the same molecule?
Answer: 19.4 ± 7.38%
